Literature values as cited in patent US20220333169A1, “Polygenic Score for Cardiac Heart Failure” (Henry Ford Health System, priority 2019, published 2022).

Tested on: heart failure patients
Conditions: one randomized clinical trial

COc1ccccc1OCCNCC(O)COc1cccc2[nH]c3ccccc3c12 (stereo not shown) [carvedilol]
95% confidence interval for change in left ventricular ejection fraction (LVEF): −11.1 to +32.9
